From paper PMC11842588, “A first-in-class selective inhibitor of ERK1/2 and ERK5 overcomes drug resistance with a single-molecule strategy” (Signal Transduction and Targeted Therapy, 2025)

Key:
Test in all cases: Kinase profiling
Type in all cases: biochemical
JNK2α2(h) = target: T1, JNK2α2(h) (Homo sapiens, UniProt P45984)
T1 construct: purchased Eurofins Cerep SA (KinaseProfiler)
Protocol: (§1) 380 kinases inhibitory activities of SKLB-D18 were conducted by Eurofins Cerep SA. The result was illustrated by kinase tree (http://www.kinhub.org/kinmap/).

Wee1(h) = target: T2, Wee1(h) (Homo sapiens, UniProt P30291)
T2 construct: purchased Eurofins Cerep SA (KinaseProfiler)
Protocol: as §1

CDK2/cyclinA(h) = target: T3, CDK2/cyclinA(h) (Homo sapiens, UniProt P24941)
T3 construct: purchased Eurofins Cerep SA (KinaseProfiler)
Protocol: as §1

TAO2(h) = target: T4, TAO2(h) (Homo sapiens, UniProt Q9UL54)
T4 construct: purchased Eurofins Cerep SA (KinaseProfiler)
Protocol: as §1

SIK(h) = target: T5, SIK(h) (Homo sapiens, UniProt P57059)
T5 construct: purchased Eurofins Cerep SA (KinaseProfiler)
Protocol: as §1

PAK4(h) = target: T6, PAK4(h) (Homo sapiens, UniProt O96013)
T6 construct: purchased Eurofins Cerep SA (KinaseProfiler)
Protocol: as §1

NDR2(h) = target: T7, NDR2(h) (Homo sapiens, UniProt Q9Y2H1)
T7 construct: purchased Eurofins Cerep SA (KinaseProfiler)
Protocol: as §1

MAPK7(h) = target: T8, MAPK7(h) (Homo sapiens, UniProt Q13164)
T8 construct: purchased Eurofins Cerep SA (KinaseProfiler)
Protocol: as §1

DDR2(h) = target: T9, DDR2(h) (Homo sapiens, UniProt Q16832)
T9 construct: purchased Eurofins Cerep SA (KinaseProfiler)
Protocol: as §1

BrSK2(h) = target: T10, BrSK2(h) (Homo sapiens, UniProt Q8IWQ3)
T10 construct: purchased Eurofins Cerep SA (KinaseProfiler)
Protocol: as §1

CK1δ(h) = target: T11, CK1δ(h) (Homo sapiens, UniProt P48730)
T11 construct: purchased Eurofins Cerep SA (KinaseProfiler)
Protocol: as §1

ATM(h) = target: T12, ATM(h) (Homo sapiens, UniProt Q13315)
T12 construct: purchased Eurofins Cerep SA (KinaseProfiler)
Protocol: as §1

MRCKγ(h) = target: T13, MRCKγ(h) (Homo sapiens, UniProt Q6DT37)
T13 construct: purchased Eurofins Cerep SA (KinaseProfiler)
Protocol: as §1

NEK5(h) = target: T14, NEK5(h) (Homo sapiens, UniProt Q6P3R8)
T14 construct: purchased Eurofins Cerep SA (KinaseProfiler)
Protocol: as §1

Ron(h) = target: T15, Ron(h) (Homo sapiens, UniProt Q04912)
T15 construct: purchased Eurofins Cerep SA (KinaseProfiler)
Protocol: as §1

Pim-2(h) = target: T16, Pim-2(h) (Homo sapiens, UniProt Q9P1W9)
T16 construct: purchased Eurofins Cerep SA (KinaseProfiler)
Protocol: as §1

CDK9/cyclin T1(h) = target: T17, CDK9/cyclin T1(h) (Homo sapiens, UniProt P50750)
T17 construct: purchased Eurofins Cerep SA (KinaseProfiler)
Protocol: as §1

LTK(h) = target: T18, LTK(h) (Homo sapiens, UniProt P29376)
T18 construct: purchased Eurofins Cerep SA (KinaseProfiler)
Protocol: as §1

PKBγ(h) = target: T19, PKBγ(h) (Homo sapiens, UniProt Q9Y243)
T19 construct: purchased Eurofins Cerep SA (KinaseProfiler)
Protocol: as §1

DYRK1B(h) = target: T20, DYRK1B(h) (Homo sapiens, UniProt Q9Y463)
T20 construct: purchased Eurofins Cerep SA (KinaseProfiler)
Protocol: as §1

IGF-1R(h), activated = target: T21, IGF-1R(h), activated (Homo sapiens, UniProt P08069)
T21 construct: purchased Eurofins Cerep SA (KinaseProfiler)
Protocol: as §1

PKD2(h) = target: T22, PKD2(h) (Homo sapiens, UniProt Q9BZL6)
T22 construct: purchased Eurofins Cerep SA (KinaseProfiler)
Protocol: as §1

TrkA(h) = target: T23, TrkA(h) (Homo sapiens, UniProt P04629)
T23 construct: purchased Eurofins Cerep SA (KinaseProfiler)
Protocol: as §1

TTBK1(h) = target: T24, TTBK1(h) (Homo sapiens, UniProt Q5TCY1)
T24 construct: purchased Eurofins Cerep SA (KinaseProfiler)
Protocol: as §1

CHK2(h) = target: T25, CHK2(h) (Homo sapiens, UniProt O96017)
T25 construct: purchased Eurofins Cerep SA (KinaseProfiler)
Protocol: as §1

PRP4(h) = target: T26, PRP4(h) (Homo sapiens, UniProt Q13523)
T26 construct: purchased Eurofins Cerep SA (KinaseProfiler)
Protocol: as §1

CK2α2(h) = target: T27, CK2α2(h) (Homo sapiens, UniProt P19784)
T27 construct: purchased Eurofins Cerep SA (KinaseProfiler)
Protocol: as §1

ACK1(h) = target: T28, ACK1(h) (Homo sapiens, UniProt Q07912)
T28 construct: purchased Eurofins Cerep SA (KinaseProfiler)
Protocol: as §1

TAF1L(h) = target: T29, TAF1L(h) (Homo sapiens, UniProt Q8IZX4)
T29 construct: purchased Eurofins Cerep SA (KinaseProfiler)
Protocol: as §1

mTOR(h) = target: T30, mTOR(h) (Homo sapiens, UniProt P42345)
T30 construct: purchased Eurofins Cerep SA (KinaseProfiler)
Protocol: as §1

PKCθ(h) = target: T31, PKCθ(h) (Homo sapiens, UniProt Q04759)
T31 construct: purchased Eurofins Cerep SA (KinaseProfiler)
Protocol: as §1

DCAMKL1(h) = target: T32, DCAMKL1(h) (Homo sapiens, UniProt O15075)
T32 construct: purchased Eurofins Cerep SA (KinaseProfiler)
Protocol: as §1

NUAK2(h) = target: T33, NUAK2(h) (Homo sapiens, UniProt Q9H093)
T33 construct: purchased Eurofins Cerep SA (KinaseProfiler)
Protocol: as §1

Abl(h) = target: T34, Abl(h) (Homo sapiens, UniProt P00519)
T34 construct: purchased Eurofins Cerep SA (KinaseProfiler)
Protocol: as §1

SAPK4(h) = target: T35, SAPK4(h) (Homo sapiens, UniProt O15264)
T35 construct: purchased Eurofins Cerep SA (KinaseProfiler)
Protocol: as §1

FAK(h) = target: T36, FAK(h) (Homo sapiens, UniProt Q05397)
T36 construct: purchased Eurofins Cerep SA (KinaseProfiler)
Protocol: as §1

LOK(h) = target: T37, LOK(h) (Homo sapiens, UniProt O94804)
T37 construct: purchased Eurofins Cerep SA (KinaseProfiler)
Protocol: as §1

DAPK2(h) = target: T38, DAPK2(h) (Homo sapiens, UniProt Q9UIK4)
T38 construct: purchased Eurofins Cerep SA (KinaseProfiler)
Protocol: as §1

MLK2(h) = target: T39, MLK2(h) (Homo sapiens, UniProt Q02779)
T39 construct: purchased Eurofins Cerep SA (KinaseProfiler)
Protocol: as §1

Syk(h) = target: T40, Syk(h) (Homo sapiens, UniProt P43405)
T40 construct: purchased Eurofins Cerep SA (KinaseProfiler)
Protocol: as §1

PI3 Kinase (p120g)(h) = target: T41, PI3 Kinase (p120g)(h) (Homo sapiens, UniProt P48736)
T41 construct: purchased Eurofins Cerep SA (KinaseProfiler)
Protocol: as §1

T4 sequence (Q9UL54 whole entry): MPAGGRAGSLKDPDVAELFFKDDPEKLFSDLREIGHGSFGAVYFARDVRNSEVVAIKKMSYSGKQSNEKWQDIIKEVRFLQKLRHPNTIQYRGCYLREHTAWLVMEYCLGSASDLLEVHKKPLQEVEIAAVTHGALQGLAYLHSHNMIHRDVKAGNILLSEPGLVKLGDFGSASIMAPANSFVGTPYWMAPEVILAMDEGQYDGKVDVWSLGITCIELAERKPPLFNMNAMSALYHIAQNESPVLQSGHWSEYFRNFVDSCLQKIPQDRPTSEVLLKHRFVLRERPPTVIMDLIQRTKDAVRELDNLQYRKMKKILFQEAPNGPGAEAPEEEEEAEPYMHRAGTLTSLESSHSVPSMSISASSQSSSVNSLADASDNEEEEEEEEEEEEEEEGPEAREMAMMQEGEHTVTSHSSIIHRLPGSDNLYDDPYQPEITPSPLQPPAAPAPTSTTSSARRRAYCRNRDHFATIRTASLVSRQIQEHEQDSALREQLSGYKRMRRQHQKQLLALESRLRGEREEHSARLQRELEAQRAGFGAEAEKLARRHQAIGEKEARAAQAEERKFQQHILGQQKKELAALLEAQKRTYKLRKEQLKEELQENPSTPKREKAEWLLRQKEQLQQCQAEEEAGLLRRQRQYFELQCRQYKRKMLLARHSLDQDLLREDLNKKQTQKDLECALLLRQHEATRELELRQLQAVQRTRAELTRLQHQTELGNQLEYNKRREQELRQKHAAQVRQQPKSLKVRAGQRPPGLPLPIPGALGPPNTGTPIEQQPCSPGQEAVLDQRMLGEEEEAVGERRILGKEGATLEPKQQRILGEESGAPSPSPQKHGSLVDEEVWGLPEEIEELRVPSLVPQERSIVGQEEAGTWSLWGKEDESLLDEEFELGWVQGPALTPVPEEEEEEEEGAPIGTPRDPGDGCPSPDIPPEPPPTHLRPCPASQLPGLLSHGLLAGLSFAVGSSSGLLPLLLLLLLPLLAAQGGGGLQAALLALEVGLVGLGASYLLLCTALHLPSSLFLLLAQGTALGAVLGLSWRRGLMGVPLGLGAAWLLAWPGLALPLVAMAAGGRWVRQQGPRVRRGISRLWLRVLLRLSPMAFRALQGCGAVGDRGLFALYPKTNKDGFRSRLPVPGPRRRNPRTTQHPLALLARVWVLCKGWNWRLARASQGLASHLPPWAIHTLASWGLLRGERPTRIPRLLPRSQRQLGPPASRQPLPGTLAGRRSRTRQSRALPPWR
T10 sequence (Q8IWQ3 whole entry): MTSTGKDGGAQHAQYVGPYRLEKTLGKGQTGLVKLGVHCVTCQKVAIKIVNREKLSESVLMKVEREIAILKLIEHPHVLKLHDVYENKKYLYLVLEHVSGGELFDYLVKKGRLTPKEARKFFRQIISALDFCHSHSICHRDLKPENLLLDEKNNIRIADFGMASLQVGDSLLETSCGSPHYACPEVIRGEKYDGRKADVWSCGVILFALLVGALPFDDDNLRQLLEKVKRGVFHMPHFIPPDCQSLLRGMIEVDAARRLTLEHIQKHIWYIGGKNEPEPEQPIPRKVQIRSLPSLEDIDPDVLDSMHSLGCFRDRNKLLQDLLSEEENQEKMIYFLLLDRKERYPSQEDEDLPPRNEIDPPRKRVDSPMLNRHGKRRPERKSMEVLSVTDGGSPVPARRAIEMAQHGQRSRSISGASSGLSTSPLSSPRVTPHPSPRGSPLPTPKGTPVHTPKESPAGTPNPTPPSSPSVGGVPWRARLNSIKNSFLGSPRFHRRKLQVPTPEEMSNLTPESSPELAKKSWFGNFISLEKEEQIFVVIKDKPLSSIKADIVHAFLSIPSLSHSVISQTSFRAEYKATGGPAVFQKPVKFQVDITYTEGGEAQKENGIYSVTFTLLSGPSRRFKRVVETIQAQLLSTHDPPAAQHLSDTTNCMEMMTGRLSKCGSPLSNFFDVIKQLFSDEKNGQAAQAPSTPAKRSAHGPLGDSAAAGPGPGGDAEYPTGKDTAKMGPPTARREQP
T25 sequence (O96017 whole entry): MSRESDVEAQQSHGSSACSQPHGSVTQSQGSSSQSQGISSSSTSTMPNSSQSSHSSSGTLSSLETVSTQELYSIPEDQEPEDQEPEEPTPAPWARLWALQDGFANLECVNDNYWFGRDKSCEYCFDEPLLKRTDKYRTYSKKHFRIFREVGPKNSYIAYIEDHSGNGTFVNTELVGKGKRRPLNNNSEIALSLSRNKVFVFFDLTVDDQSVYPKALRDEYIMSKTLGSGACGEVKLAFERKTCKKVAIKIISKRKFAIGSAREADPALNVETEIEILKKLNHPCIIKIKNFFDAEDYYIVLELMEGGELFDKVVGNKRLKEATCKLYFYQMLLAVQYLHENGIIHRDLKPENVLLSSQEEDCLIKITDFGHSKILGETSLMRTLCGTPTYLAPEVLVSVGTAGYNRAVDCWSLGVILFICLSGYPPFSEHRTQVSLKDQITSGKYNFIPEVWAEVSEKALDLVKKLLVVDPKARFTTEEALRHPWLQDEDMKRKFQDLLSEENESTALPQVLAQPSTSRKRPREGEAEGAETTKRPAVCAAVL
T38 sequence (Q9UIK4 whole entry): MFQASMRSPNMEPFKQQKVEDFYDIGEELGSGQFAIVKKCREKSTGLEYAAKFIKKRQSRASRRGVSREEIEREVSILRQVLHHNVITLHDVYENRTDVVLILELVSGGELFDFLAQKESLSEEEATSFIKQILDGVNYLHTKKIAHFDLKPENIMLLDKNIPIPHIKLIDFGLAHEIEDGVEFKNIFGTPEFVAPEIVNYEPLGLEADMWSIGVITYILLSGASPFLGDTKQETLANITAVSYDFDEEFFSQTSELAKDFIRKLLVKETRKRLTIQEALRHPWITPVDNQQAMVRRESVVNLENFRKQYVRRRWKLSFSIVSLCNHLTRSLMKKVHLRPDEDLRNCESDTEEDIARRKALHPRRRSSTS
T36 sequence (Q05397 whole entry): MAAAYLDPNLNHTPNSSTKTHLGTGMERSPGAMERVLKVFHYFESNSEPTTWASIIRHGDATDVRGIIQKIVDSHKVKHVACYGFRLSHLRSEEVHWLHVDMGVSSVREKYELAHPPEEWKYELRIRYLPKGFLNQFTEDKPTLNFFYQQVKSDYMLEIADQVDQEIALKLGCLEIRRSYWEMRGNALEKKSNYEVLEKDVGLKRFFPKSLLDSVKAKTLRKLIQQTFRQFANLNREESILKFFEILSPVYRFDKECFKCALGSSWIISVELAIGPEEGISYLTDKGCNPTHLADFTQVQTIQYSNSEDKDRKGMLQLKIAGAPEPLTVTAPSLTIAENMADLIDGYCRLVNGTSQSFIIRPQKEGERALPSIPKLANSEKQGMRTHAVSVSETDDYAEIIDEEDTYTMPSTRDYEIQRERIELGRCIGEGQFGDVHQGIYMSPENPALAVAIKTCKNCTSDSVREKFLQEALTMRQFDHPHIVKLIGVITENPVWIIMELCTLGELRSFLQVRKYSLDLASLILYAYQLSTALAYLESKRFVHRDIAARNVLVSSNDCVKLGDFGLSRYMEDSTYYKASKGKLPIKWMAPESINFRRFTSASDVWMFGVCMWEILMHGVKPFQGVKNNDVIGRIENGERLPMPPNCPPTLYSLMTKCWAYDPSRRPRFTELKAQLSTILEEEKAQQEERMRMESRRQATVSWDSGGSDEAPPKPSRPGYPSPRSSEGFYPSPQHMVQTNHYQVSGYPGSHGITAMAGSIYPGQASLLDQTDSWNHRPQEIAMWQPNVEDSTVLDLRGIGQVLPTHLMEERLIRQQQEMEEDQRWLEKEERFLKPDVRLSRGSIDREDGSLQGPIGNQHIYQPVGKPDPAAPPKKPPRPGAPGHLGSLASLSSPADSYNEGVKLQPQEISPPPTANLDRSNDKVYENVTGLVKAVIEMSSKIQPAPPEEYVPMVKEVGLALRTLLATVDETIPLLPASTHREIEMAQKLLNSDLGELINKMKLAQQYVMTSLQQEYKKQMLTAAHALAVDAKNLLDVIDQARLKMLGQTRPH
T1 sequence (P45984 whole entry): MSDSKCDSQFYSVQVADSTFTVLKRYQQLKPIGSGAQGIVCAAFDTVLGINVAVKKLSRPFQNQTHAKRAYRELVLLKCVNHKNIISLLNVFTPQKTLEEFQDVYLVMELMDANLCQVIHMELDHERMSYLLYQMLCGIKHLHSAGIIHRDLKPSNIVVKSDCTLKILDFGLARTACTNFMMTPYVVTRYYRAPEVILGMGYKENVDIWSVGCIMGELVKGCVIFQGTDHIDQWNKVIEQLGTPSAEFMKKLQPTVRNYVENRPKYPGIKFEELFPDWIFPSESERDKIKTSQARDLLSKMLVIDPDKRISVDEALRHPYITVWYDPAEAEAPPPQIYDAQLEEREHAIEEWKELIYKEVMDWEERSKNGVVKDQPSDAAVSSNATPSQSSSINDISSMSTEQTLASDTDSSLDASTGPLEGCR
T33 sequence (Q9H093 whole entry): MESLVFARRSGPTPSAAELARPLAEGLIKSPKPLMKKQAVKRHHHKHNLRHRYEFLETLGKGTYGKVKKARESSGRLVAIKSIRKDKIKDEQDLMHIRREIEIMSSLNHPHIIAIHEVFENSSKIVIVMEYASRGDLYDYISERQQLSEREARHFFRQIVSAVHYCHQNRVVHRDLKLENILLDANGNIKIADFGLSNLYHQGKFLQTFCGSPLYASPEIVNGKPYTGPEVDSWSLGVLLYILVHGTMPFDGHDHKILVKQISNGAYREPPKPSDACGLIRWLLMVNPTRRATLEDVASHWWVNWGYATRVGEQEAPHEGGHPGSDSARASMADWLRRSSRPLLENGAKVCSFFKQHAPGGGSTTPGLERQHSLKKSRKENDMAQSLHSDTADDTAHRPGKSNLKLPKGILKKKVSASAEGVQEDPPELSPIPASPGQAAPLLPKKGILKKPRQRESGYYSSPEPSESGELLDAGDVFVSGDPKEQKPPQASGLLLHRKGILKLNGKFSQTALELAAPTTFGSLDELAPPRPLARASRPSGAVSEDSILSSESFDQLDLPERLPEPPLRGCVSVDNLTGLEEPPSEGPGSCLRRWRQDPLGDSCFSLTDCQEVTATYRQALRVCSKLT

SMILES: CN(C)Cc1cccc(Nc2ncc(Cl)c(-c3csc(C(=O)NN4CCOCC4)c3)n2)c1 [SKLB-D18, 4-(5-chloro-2-((3-((dimethylamino)methyl)phenyl)amino)pyrimidin-4-yl)-N-morpholinothiophene-2-carboxamide]
- inhibition at 1 µM (JNK2α2(h)): 48%
- inhibition at 1 µM (Wee1(h)): 48%
- inhibition at 1 µM (CDK2/cyclinA(h)): 58%
- inhibition at 1 µM (TAO2(h)): 64%
- inhibition at 1 µM (SIK(h)): 26%
- inhibition at 1 µM (PAK4(h)): 21%
- inhibition at 1 µM (NDR2(h)): 27%
- inhibition at 1 µM (MAPK7(h)): 93%
- inhibition at 1 µM (DDR2(h)): -2%
- inhibition at 1 µM (BrSK2(h)): 23%
- inhibition at 1 µM (CK1δ(h)): 16%
- inhibition at 1 µM (ATM(h)): 7%
- inhibition at 1 µM (MRCKγ(h)): 34%
- inhibition at 1 µM (NEK5(h)): 68%
- inhibition at 1 µM (Ron(h)): 58%
- inhibition at 1 µM (Pim-2(h)): 26%
- inhibition at 1 µM (CDK9/cyclin T1(h)): 28%
- inhibition at 1 µM (LTK(h)): 38%
- inhibition at 1 µM (PKBγ(h)): 14%
- inhibition at 1 µM (DYRK1B(h)): 67%
- inhibition at 1 µM (IGF-1R(h), activated): 0%
- inhibition at 1 µM (PKD2(h)): 66%
- inhibition at 1 µM (TrkA(h)): 48%
- inhibition at 1 µM (TTBK1(h)): -5%
- inhibition at 1 µM (CHK2(h)): 19%
- inhibition at 1 µM (PRP4(h)): 19%
- inhibition at 1 µM (CK2α2(h)): 65%
- inhibition at 1 µM (ACK1(h)): 14%
- inhibition at 1 µM (TAF1L(h)): 53%
- inhibition at 1 µM (mTOR(h)): -4%
- inhibition at 1 µM (PKCθ(h)): 7%
- inhibition at 1 µM (DCAMKL1(h)): 17%
- inhibition at 1 µM (NUAK2(h)): 67%
- inhibition at 1 µM (Abl(h)): 45%
- inhibition at 1 µM (SAPK4(h)): 53%
- inhibition at 1 µM (FAK(h)): 17%
- inhibition at 1 µM (LOK(h)): 2%
- inhibition at 1 µM (DAPK2(h)): 53%
- inhibition at 1 µM (MLK2(h)): 59%
- inhibition at 1 µM (Syk(h)): 38%
- inhibition at 1 µM (PI3 Kinase (p120g)(h)): 4%
